In the test the test system is patients with immune thrombocytopenia who initiated 400 mg BID. In words: Clinical predictors of response, exploratory analysis of Phase 1/2 study (univariate logistic regression). Type of test: in vivo, human. The text has this:
Clinical predictors were selected based on clinical considerations anticipated to be associated with platelet response and evaluated by univariate logistic regression models. For continuous variables, the t test was used to test for differences, whereas for categorical variables, the Fisher exact test was used. PK exposure at steady-state was estimated based on post hoc analysis from a previously established population PK model.

In the case of `CC(C)(C=C(C#N)C(=O)N1CCC[C@@H](n2nc(-c3ccc(Oc4ccccc4)cc3F)c3c(N)ncnc32)C1)N1CCN(C2COC2)CC1` [rilzabrutinib, (R)-2-[3-[4-amino-3-(2-fluoro-4-phenoxy-phenyl)pyrazolo[3,4-d]pyrimidin-1-yl]piperidine-1-carbonyl]-4-methyl-4-[4-(oxetan-3-yl)piperazin-1-yl]pent-2-enenitrile], the “early responders, proportion of patients” value by setting is: (patients who received prior rituximab) 14%; (patients with no prior rituximab) 48%. Besides, the “responders, proportion of patients” value is 23% (patients with prior rituximab), 64% (patients without prior TPO-RA) and 57% (patients without prior rituximab).

(Values after US20250255874A1, “Methods for Treating Immune Thrombocytopenia By Administering (R)-2-[3-[4-Amino-3-(2-Fluoro-4-Phenoxy-Phenyl)Pyrazolo[3,4-D]Pyrimidin-1-YL]Piperidine-1-Carbonyl]-4-Methyl-4-[4-(Oxetan-3-YL)Piperazin-1-YL]Pent-2-Enentrile” (Principia Biopharma Inc., priority 2022, published 2025).)
